Measurements as given in patent publication US8029764B2, “Methods for detection of colorectal cancer” (The Johns Hopkins University, priority 2001, dated 2011).

Test system: colorectal tissue transcripts
Assay: SAGE of normal, adenoma and cancer colorectal tissue (transcript tag counts)
Set-up: species or system human
Details: for AD1 (SAGE tag count): SAGE library AD1; for AD2 (SAGE tag count): SAGE library AD2; for CA1 (SAGE tag count): SAGE library CA1; for CA2 (SAGE tag count): SAGE library CA2; for NC1 (SAGE tag count): SAGE library NC1; for NC2 (SAGE tag count): SAGE library NC2
Text: In an effort to identify potential molecular markers of early colorectal tumors, we have here analyzed gene expression in benign and malignant colorectal tumors in an unbiased and comprehensive fashion. We used SAGE to analyze global gene expression in normal, benign and malignant colorectal tissue. SAGE is a gene expression profiling method that associates individual mRNA transcripts with 15-base tags derived from specific positions near their 3′ termini (3). The abundance of each tag provides a quantitative measure of the transcript level present within the mRNA population studied. SAGE is not dependent on pre-existing databases of expressed genes, and therefore provides an unbiased view of gene expression profiles. For the current study, SAGE libraries derived from two samples of normal colonic epithelium, two colorectal adenomas, and two colorectal cancers were analyzed.
SAGE. For the initial SAGE^3 of benign tumors, fresh adenomas were obtained from surgical specimens derived from FAP patients. Adenomas from FAP patients were employed because of the ready availability of small lesions and the certainty of inactivation of the APC pathway which initiates the formation of the majority of sporadic tumors. After histopathological verification of the neoplastic nature of the lesion (>70% neoplastic cells), total RNA was isolated by solubilizing the tissue in RNAgents Lysis Buffer (Promega, Madison, Wis.) followed by ultracentrifugation over a cesium chloride gradient. mRNA selection was performed from the purified total RNA using oligo(dT) cellulose (Life Technologies, Gaithersburg, Md.). […] Tags were extracted from the raw sequence data and, after excluding repeated ditags, linker sequences, and tags from the polyrnorphic Major Histocompatibility loci, the resulting tag libraries were compared and statistical analysis performed using SAGE software, version 4.0. Data from the libraries are publicly available at the Uniform Resource Locator (URL) address for the http file type found on the www host server that has a domain name of ncbi.nlm.nih.gov, and a path to the directory SAGE, and detailed SAGE protocols are available at the Uniform Resource Locator (URL) address for the http file type found on the www host server that has a domain name of sagenet.org, and file name of sage_protocol.htn.

Sequence	AD1 (SAGE tag count)	AD2 (SAGE tag count)	CA1 (SAGE tag count)	CA2 (SAGE tag count)	NC1 (SAGE tag count)	NC2 (SAGE tag count)
CCTGTGACAG (chemistry not fully specified)	0	4	3	1	22	27
CCTTCAAATC (chemistry not fully specified)	0	0	1	0	29	17
CGAGGGGCCA (chemistry not fully specified)	18	18	12	32	110	47
CGCTGTGGGG (chemistry not fully specified)	19	8	8	6	58	53
CGGACTCACT (chemistry not fully specified)	5	14	14	10	20	45
CGGGAGTCGG (chemistry not fully specified)	13	2	9	1	28	30
CGGTGGGACC (target site or template, no part of the molecule; chemistry not given here)	1	1	3	3	7	14
CGTGGGTGGG (chemistry not fully specified)	1	0	0	1	1	10
CTAGCCTCAC (chemistry not fully specified)	30	53	36	58	172	90
CTCAGAACTT (chemistry not fully specified)	1	0	0	0	18	3
CTGAACCTCC (chemistry not fully specified)	2	0	0	0	5	15
CTGACCTGTG (chemistry not fully specified)	48	18	16	46	88	130
CTGGATCTGG (chemistry not fully specified; the letters are possibly those of the target site)	3	9	5	10	21	21
CTGGCAAAGG (chemistry not fully specified)	1	0	0	0	14	22
CTGGCCCTCG (chemistry not fully specified)	1	3	15	14	186	52
